# Results as given in patent US9382208B1, “Negative allosteric modulators of metabotropic glutamate receptor 2” (Vanderbilt University, priority 2015, dated 2016).
# Target: T1, rat mGlu2 (Rattus norvegicus, UniProt P31421)
# T1 construct: expressed in transfected cells
# Assay: mGlu2 Ca2+ flux assay
# Format: cell-based
# Details: for IC50: Gα15 HEK293 cells stably expressing rat mGlu2, glutamate EC80 addition, read-out: rat mGlu2 IC50; for remaining activity at 30 µM: amplitude of response in the presence of 30 μM test compound as percentage of maximal response to glutamate, read-out: rat mGlu2 Glu max (%)
# Method: Gα15 HEK293 cells stably expressing rat mGlu2 were plated in black-walled, clear-bottomed, poly-D-lysine coated 384-well plates in 20 μL of assay medium (DMEM containing 10% dialyzed FBS, 20 mM HEPES, and 1 mM sodium pyruvate) at a density of 12K cells/well. The cells were grown overnight at 37° C. in the presence of 5% CO2. The next day, medium was removed and the cells incubated with 20 μL of 2.3 μM Fluo-4, AM prepared as a 2.3 mM stock in DMSO and mixed in a 1:1 ratio with 10% (w/v) pluronic acid F-127 and diluted in assay buffer (Hank's balanced salt solution, 20 mM HEPES, and 2.5 mM probenecid) for 45 minutes at 37° C. Dye was removed, 20 μL of assay buffer was added, and the plate was incubated for 5 minutes at room temperature.
# Ca^2+ flux was measured using the Functional Drug Screening System (FDSS7000, Hamamatsu, Japan). After establishment of a fluorescence baseline for about 3 seconds, the compounds of the present invention were added to the cells, and the response in cells was measured. 2.3 minutes later an EC20 concentration of the mGlu2 receptor agonist glutamate was added to the cells, and the response of the cells was measured for 1.9 minutes; an EC80 concentration of agonist was added and readings taken for an additional 1.7 minutes. All test compounds were dissolved and diluted to a concentration of 10 mM in 100% DMSO. Compounds were then serially diluted 1:3 in DMSO into 10 point concentration response curves, transferred to daughter plates, and further diluted into assay buffer to a 2× stock. Calcium fluorescence measures were recorded as fold over basal fluorescence; raw data was then normalized to the maximal response to glutamate. Antagonism of the agonist response of the mGlu2 receptor in the present invention was observed as a decrease in response to nearly maximal concentrations of glutamate in the presence of compound compared to the response to glutamate in the absence of compound.
# The raw data file containing all time points was used as the data source in the analysis template. This was saved by the FDSS as a tab-delimited text file. Data were normalized using a static ratio function (F/F0) for each measurement of the total 360 values per well divided by each well's initial value. Data were then reduced to peak amplitudes (Max−Initial Min) using a time range that starts approximately 3 seconds prior to the glutamate EC80 addition and continues for approximately 90 seconds. This is sufficient time to capture the peak amplitude of the cellular calcium response. Individual amplitudes were expressed as % ECMax by multiplying each amplitude by 100 and then dividing the product by the mean of the amplitudes derived from the glutamate ECMax-treated wells. IC50 values for test compounds were generated by fitting the normalized values versus the log of the test compound concentration (in mol/L) using a 4 parameter logistic equation where none of the parameters were fixed. Each of the three values collected at each concentration of test compound were weighted evenly.
# For NAMs, potency (IC50) and maximum response (% Glu Max), i.e. the amplitude of response in the presence of 30 μM test compound as a percentage of the maximal response to glutamate, are reported. […] Compounds with no measurable activity are designated as “>30,000 nM” since the top concentration of compound tested in the assay is 30 μM.
# T1 sequence (P31421 19-872): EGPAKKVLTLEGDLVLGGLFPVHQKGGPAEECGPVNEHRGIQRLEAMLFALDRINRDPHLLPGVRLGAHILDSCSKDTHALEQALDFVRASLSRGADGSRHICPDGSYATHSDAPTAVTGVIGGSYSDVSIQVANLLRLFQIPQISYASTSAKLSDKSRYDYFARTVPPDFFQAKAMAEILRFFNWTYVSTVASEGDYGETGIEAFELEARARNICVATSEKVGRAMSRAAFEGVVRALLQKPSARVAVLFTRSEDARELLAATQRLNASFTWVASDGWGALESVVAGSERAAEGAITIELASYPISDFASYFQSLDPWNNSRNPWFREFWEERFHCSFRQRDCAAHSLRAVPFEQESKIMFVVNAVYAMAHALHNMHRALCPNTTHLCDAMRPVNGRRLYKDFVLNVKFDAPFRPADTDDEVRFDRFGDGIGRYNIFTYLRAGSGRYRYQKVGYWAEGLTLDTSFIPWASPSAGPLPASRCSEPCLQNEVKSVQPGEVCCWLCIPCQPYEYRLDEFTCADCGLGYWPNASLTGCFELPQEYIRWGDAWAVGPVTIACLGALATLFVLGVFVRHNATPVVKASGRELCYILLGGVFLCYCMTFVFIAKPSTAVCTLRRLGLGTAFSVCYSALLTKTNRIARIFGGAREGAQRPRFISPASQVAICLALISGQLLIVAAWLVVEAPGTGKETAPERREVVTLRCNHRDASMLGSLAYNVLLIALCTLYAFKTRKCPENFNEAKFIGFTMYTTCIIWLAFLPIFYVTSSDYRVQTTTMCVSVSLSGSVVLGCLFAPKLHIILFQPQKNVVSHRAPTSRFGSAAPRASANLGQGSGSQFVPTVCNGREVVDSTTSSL
IC50 [µM],remaining activity at 30 µM [%],Compound
2.59,0.96,"NC(=O)c1cn(-c2ccc(F)cc2)c2ccc(CN3CCCCCC3)cc2c1=O [Compound 73, 6-(azepan-1-ylmethyl)-1-(4-fluorophenyl)-4-oxo-1,4-dihydroquinoline-3-carboxamide]"
0.422 ± 0.052,1.24 ± 0.04,"NC(=O)c1cn(-c2ccc(F)cc2)c2ccc(CN3CCCS(=O)(=O)CC3)cc2c1=O [Compound 85, 6-((1,1-dioxido-1,4-thiazepan-4-yl)methyl)-1-(4-fluorophenyl)-4-oxo-1,4-dihydroquinoline-3-carboxamide]"
1.03,1.4,"NC(=O)c1cn(-c2ccc(F)cc2)c2ccc(CCc3cncc(F)c3)cc2c1=O [Compound 48, 1-(4-fluorophenyl)-6-(2-(5-fluoropyridin-3-yl)ethyl)-4-oxo-1,4-dihydroquinoline-3-carboxamide]"
0.197 ± 0.091,1.59 ± 0.27,"NC(=O)c1cn(-c2ccc(F)cc2)c2ccc(CN3CCC(F)(F)CC3)cc2c1=O [Compound 78, 6-((4,4-difluoropiperidin-1-yl)methyl)-1-(4-fluorophenyl)-4-oxo-1,4-dihydroquinoline-3-carboxamide]"
0.724,1.36,"C[C@H]1CN(Cc2ccc3c(c2)c(=O)c(C(N)=O)cn3-c2ccc(F)cc2)CCO1 [Compound 88, (S)-1-(4-fluorophenyl)-6-((2-methylmorpholino)methyl)-4-oxo-1,4-dihydroquinoline-3-carboxamide]"
0.222 ± 0.036,1.42 ± 0.51,"C[C@@H]1CN(Cc2ccc3c(c2)c(=O)c(C(N)=O)cn3-c2ccc(F)cc2)C[C@H](C)O1 [Compound 64, 6-((cis-2,6-Dimethylmorpholino)methyl)-1-(4-fluorophenyl)-4-oxo-1,4-dihydroquinoline-3-carboxamide]"
2.11,0.44,"NC(=O)c1cn(-c2ccc(F)cc2)c2ccc(Oc3cncc(F)c3)cc2c1=O [Compound 59, 1-(4-fluorophenyl)-6-((5-fluoropyridin-3-yl)oxy)-4-oxo-1,4-dihydroquinoline-3-carboxamide]"
4.04,2.47,"CC1CCN(C)CCN1Cc1ccc2c(c1)c(=O)c(C(N)=O)cn2-c1ccc(F)cc1 (stereo not shown) [Compound 68, 6-((4,7-dimethyl-1,4-diazepan-1-yl)methyl)-1-(4-fluorophenyl)-4-oxo-1,4-dihydroquinoline-3-carboxamide]"
0.669,2.26,"CN(Cc1cccnc1)c1cc2c(=O)c(C(N)=O)cn(-c3ccc(F)cc3)c2cc1F [Compound 52, 7-Fluoro-1-(4-fluorophenyl)-6-(methyl(pyridin-3-ylmethyl)amino)-4-oxo-1,4-dihydroquinoline-3-carboxamide]"
0.821,1.33,"CN(Cc1ccc2c(c1)c(=O)c(C(N)=O)cn2-c1ccc(F)cc1)C1CC1 [Compound 70, 6-((cyclopropyl(methyl)amino)methyl)-1-(4-fluorophenyl)-4-oxo-1,4-dihydroquinoline-3-carboxamide]"
1.16,2.04,"NC(=O)c1cn(-c2ccc(F)cc2)c2ccc(CN3CCS(=O)(=O)CC3)cc2c1=O [Compound 84, 6-((1,1-dioxidothiomorpholino)methyl)-1-(4-fluorophenyl)-4-oxo-1,4-dihydroquinoline-3-carboxamide]"
0.823,1.41,"NC(=O)c1cn(-c2ccc(F)cc2)c2ccc(CN3CCC(C(F)(F)F)CC3)cc2c1=O [Compound 77, 1-(4-fluorophenyl)-4-oxo-6-((4-(trifluoromethyl)piperidin-1-yl)methyl)-1,4-dihydroquinoline-3-carboxamide]"
1.36,0.93,"CN1CCN(Cc2ccc3c(c2)c(=O)c(C(N)=O)cn3-c2ccc(F)cc2)CC1 [Compound 87, 1-(4-fluorophenyl)-6-((4-methylpiperazin-1-yl)methyl)-4-oxo-1,4-dihydroquinoline-3-carboxamide]"

# The next lines start with the molecule.
Compound,IC50 [µM],remaining activity at 30 µM [%]
"COc1ccc(-n2cc(C(N)=O)c(=O)c3cc(CCc4cnc(C)nc4)ccc32)c(F)c1 [Compound 13, 1-(2-fluoro-4-methoxyphenyl)-6-(2-(2-methylpyrimidin-5-yl)ethyl)-4-oxo-1,4-dihydroquinoline-3-carboxamide]",0.311,1.14
"NC(=O)c1cn(-c2ccc(F)cc2)c2ccc(N3CCCC3c3cccnc3)cc2c1=O (stereo not shown) [Compound 40, 1-(4-fluorophenyl)-4-oxo-6-(2-(pyridin-3-yl)pyrrolidin-1-yl)-1,4-dihydroquinoline-3-carboxamide]",0.429,1.81
"NC(=O)c1cn(-c2ccc(F)cc2)c2ccc(Nc3cccnc3)cc2c1=O [Compound 16, 1-(4-fluorophenyl)-4-oxo-6-(pyridin-3-ylamino)-1,4-dihydroquinoline-3-carboxamide]",0.433,1.77
"COc1ccc(-n2cc(C(N)=O)c(=O)c3cc(CCc4cnc(C)nc4)ccc32)cc1F [Compound 14, 1-(3-fluoro-4-methoxyphenyl)-6-(2-(2-methylpyrimidin-5-yl)ethyl)-4-oxo-1,4-dihydroquinoline-3-carboxamide]",0.252,1.15
"NC(=O)c1cn(-c2ccc(F)cc2)c2ccc(CCc3ccccc3)cc2c1=O [Compound 5, 1-(4-fluorophenyl)-4-oxo-6-phenethyl-1,4-dihydroquinoline-3-carboxamide]",≥ 10,4.65
"NC(=O)c1cn(-c2ccc(F)cc2)c2ccc(CN3CCOCC3)cc2c1=O [Compound 3, 1-(4-fluorophenyl)-6-(morpholinomethyl)-4-oxo-1,4-dihydroquinoline-3-carboxamide]",3.91,-0.78
"NC(=O)c1cn(-c2ccc(F)cc2)c2ccc(COc3ccc(Cl)nc3)cc2c1=O [Compound 37, 6-(((6-chloropyridin-3-yl)oxy)methyl)-1-(4-fluorophenyl)-4-oxo-1,4-dihydroquinoline-3-carboxamide]",0.203 ± 0.042,1.7 ± 0.12
"Cc1cccc(CCc2ccc3c(c2)c(=O)c(C(N)=O)cn3-c2ccc(F)cc2)c1 [Compound 7, 1-(4-fluorophenyl)-6-(3-methylphenethyl)-4-oxo-1,4-dihydroquinoline-3-carboxamide]",> 10,42.1
"NC(=O)c1cn(-c2ccc(F)cc2)c2ccc(N3CCCCC3c3cccnc3)cc2c1=O (stereo not shown) [Compound 38, 1-(4-fluorophenyl)-4-oxo-6-(2-(pyridin-3-yl)piperidin-1-yl)-1,4-dihydroquinoline-3-carboxamide]",0.9,1.68
"CN(c1cccnc1)c1ccc2c(c1)c(=O)c(C(N)=O)cn2-c1ccc(F)cc1 [Compound 20, 1-(4-fluorophenyl)-6-(methyl(pyridin-3-yl)amino)-4-oxo-1,4-dihydroquinoline-3-carboxamide]",0.155,1.33
"CC(Oc1ccc2c(c1)c(=O)c(C(N)=O)cn2-c1ccc(F)cc1)c1cccnc1 (stereo not shown) [Compound 30, 1-(4-fluorophenyl)-4-oxo-6-(1-(pyridin-3-yl)ethoxy)-1,4-dihydroquinoline-3-carboxamide]",0.391 ± 0.044,1.31 ± 0.45
"NC(=O)c1cn(-c2ccc(F)cc2)c2ccc(CN3CCSCC3)cc2c1=O [Compound 2, 1-(4-fluorophenyl)-4-oxo-6-(thiomorpholinomethyl)-1,4-dihydroquinoline-3-carboxamide]",0.44 ± 0.097,1.52 ± 0.63
"Cc1ncc(OCc2ccc3c(c2)c(=O)c(C(N)=O)cn3-c2ccc(F)cc2)cn1 [Compound 35, 1-(4-fluorophenyl)-6-(((2-methylpyrimidin-5-yl)oxy)methyl)-4-oxo-1,4-dihydroquinoline-3-carboxamide]",0.287 ± 0.051,1.71 ± 0.2
